In this data set the target is ATP-dependent translocase ABCB1 (Homo sapiens, UniProt P08183). Description: TP_TRANSPORTER: increase in intracellular accumulation of rhodamine 6G in […] cell. The format is functional, cell-based.
ATP-dependent translocase ABCB1, sequence (P08183 whole entry): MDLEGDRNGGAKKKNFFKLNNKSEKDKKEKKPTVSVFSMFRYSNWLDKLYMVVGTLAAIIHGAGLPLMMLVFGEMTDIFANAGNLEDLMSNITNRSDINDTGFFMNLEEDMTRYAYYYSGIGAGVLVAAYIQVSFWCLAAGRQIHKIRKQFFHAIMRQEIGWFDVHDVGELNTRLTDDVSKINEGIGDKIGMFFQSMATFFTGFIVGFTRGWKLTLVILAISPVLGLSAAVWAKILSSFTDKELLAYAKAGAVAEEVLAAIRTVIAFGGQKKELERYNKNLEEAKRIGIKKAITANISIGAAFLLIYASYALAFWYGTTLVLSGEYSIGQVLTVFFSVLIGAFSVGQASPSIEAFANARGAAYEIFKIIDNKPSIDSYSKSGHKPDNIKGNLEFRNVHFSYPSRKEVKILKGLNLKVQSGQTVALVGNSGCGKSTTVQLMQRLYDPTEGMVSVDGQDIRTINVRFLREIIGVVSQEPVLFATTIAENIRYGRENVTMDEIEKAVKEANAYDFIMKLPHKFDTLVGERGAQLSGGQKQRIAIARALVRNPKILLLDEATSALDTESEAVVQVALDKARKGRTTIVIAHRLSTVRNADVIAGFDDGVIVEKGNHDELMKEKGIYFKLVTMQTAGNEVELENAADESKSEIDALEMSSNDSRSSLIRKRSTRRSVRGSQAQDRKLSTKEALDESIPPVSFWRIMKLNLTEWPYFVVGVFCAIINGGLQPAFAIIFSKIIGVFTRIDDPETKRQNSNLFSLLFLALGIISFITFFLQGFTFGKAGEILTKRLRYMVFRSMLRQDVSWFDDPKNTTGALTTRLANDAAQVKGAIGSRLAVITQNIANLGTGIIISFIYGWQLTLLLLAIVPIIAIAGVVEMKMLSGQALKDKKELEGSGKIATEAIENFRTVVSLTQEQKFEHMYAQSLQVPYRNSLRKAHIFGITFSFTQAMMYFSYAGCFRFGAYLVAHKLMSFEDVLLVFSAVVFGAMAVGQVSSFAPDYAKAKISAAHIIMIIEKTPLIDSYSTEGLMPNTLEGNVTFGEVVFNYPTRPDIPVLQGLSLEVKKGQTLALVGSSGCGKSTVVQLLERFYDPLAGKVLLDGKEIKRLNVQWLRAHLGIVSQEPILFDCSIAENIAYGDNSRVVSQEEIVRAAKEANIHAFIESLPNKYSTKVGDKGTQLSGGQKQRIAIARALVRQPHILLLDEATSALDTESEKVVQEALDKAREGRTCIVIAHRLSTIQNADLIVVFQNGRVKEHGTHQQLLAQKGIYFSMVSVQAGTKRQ

For the substance STEM BARK OF ANNICKIA KUMMERIAE EXTRACT, the Activity entry was “inhibitor [+]”.

Values taken from ChEMBL document CHEMBL2074043, “Investigation of fractions present in the stem bark of Annickia kummeriae on their P-glycoprotein inhibitory pump activity” (Phytother Res, 2004).
